Measurements as given in article PMC6471062, “Suppression of the Ubiquitin Pathway by Small Molecule Binding to Ubiquitin Enhances Doxorubicin Sensitivity of the Cancer Cells” (Molecules, 2019).

What was measured:
ubiquitin = ubiquitin (Homo sapiens, UniProt P0CG47); assay: Intrinsic fluorescence quenching assay of ubiquitin; conditions: 50 µM ubiquitin, 0–500 µM compound, ex 274 nm / em 305 nm; read-out: Kd, dissociation constant upon binding to ubiquitin
Method: Intrinsic fluorescence quenching assays were performed as described previously. Briefly, intrinsic fluorescence quenching of ubiquitin by indicated compounds was observed by measuring the excitation and emission wavelength at 274 nm and 305 nm respectively of the mixture of 50 µM purified ubiquitin and 0–500 µM compound. Data were fitted to nonlinear regression curves with the equation described previously. F = −∆ε·[PC] + Fo(3) b = (Po + Co + Kd)(4) c = Po·Co(5) [PC] = [b − (b^2 − 4·c)^1/2]/2(6) where Fo and F are the normalized fluorescence intensity of the mixture of ubiquitin without the compound and with different concentrations of the compound, respectively. ∆ε is a difference in the extinction coefficient of the compound between their free and complex forms. [PC] is the concentration of protein/compound complex. Po and Co are the added concentration of ubiquitin and the compound, respectively in each experiment. Kd is the dissociation constant.

Ubc13 = assay: In vitro K63 polyubiquitination reaction with Ubc13; assay type: biochemical; conditions: purified Ubc13 (Mms2/Ubc13), increasing CR (50–500 µM), 500 µM ubiquitin, 37 °C
Method: Figure 5 CR inhibits K48- and K63- polyubiquitination in vitro. (a) Interacting surface of ubiquitin when complex with E2-25K and Ubc13 compared with the surface used for CR binding. (b,c) CR inhibits K48- (b) and K63-ubiquitinations (c). First, mono ubiquitin was mixed with UBA1, E2-25K or complex Mms2/Ubc13, and 0–500 µM CR in the presence or absence of ATP regeneration system. Then the mixture was incubated at 37 °C for […]. The reaction was stopped by adding 5X SDS loading buffer and the results were analyzed with 15% SDS-PAGE.
For in vitro ubiquitination assays, 500 µM of ubiquitin was used for each ubiquitination reaction as described previously, in the absence or presence of 50–500 µM of CR. The reactions were incubated at 37 °C for 4 h and 16 h for K63- and K48 polyubiquitination respectively. The reaction was terminated by adding 5X SDS sampling buffer and results were subjected to 15% SDS-PAGE followed by Coomassie Blue staining for analyses. […] The generation of GST-ubiquitin from GST-Ubiquitin-HA as the mobility shifts were analyzed on 12.5% SDS-PAGE visualized by Coomassie blue staining. Band intensities were quantified by ImageJ [55] and used to generate the IC50 curves (log inhibitor vs. normalized response with variable slope) by GraphPad Prism version 6.0 for Windows (GraphPad Software, San Diego, CA, USA, www.graphpad.com).

USP4 = assay: TOP flash luciferase reporter assay of β-catenin with USP4; assay type: cell-based; conditions: HEK293T, CR 0–30 μM, 24 h
Method: Luciferase reporter assays were performed as described previously. Briefly, HEK293T cells were seeded in 12-well plates at 1 × 10^5 cells per well and incubated for 24 h before being transfected with either SRT-USP4 or Myc-β-catenin expression plasmids, along with the T cell factor (TCF) reporter plasmid (TOP flash) driving the expression of the luciferase gene. Equal amounts of total DNA in transfections were maintained by adding the control plasmids in each transfection experiment. 24 h post-transfection, cells were treated with CR (0–30 µM) for 24 h. After that, cells were harvested for luciferase reporter assays. Luciferase activity was measured according to the manufacturer’s instructions (Promega, Madison, WI, USA). page 5: (a) (b) Figure S5. CR inhibits USP4 deubiquitinase activity on its substrate, ß-catenin on the TOP flash reporter activity. (a) Cells were co-transfected with either SRT-USP4 or Myc‐β‐catenin expression plasmids, and TOP flash reporter plasmid containing a β‐catenin‐induced TCF reporter. 24-h post-transfection, CR was added at increasing concentrations (0 – 30 µM) and the cells were further cultured for 24 h. A top-flash activity assay of ß-catenin was conducted and (b) Western blot analysis with the indicated antibody was performed in parallel. […]

H1299 cells [1] = assay: Dox-induced cell death, colorimetric cell viability, H1299; assay type: cell-based; conditions: 10 µM CR or 5 µM NSC697923 12 h, then Dox 1.25–5.0 μM 12 h
Method: (§1) Figure 7 CR enhances Dox sensitivity of cancer cells. (a,b) Enhancement of Dox-induced apoptosis of cancer cells by CR treatment. Dox–induced apoptosis of H1299 (a) and HCT116 (b) was quantified by colorimetric cell viability after treating 10 µM CR for 12 h followed by 12h treatment of Dox (0.0–5.0 µM). […] Caspase activity was quantified by luminogenic caspase activity assay. […] All error bars represent the standard deviation from at least four independent experiments. Statistical significance was calculated by the Student’s t-test (** p < 0.01, *** p < 0.001).
(§2) Cell viability assays were performed as described previously. For the caspase assays, the media were removed, and cells were lysed in 200 µL lysis buffer containing 50 µL Caspase Glo 3/7 solution and incubated for 15 min. Results were observed by measuring the luminescence signal using KOMM-Nr (Berthold Technologies, Bad Wildbad, Germany) and normalized with the total protein concentration measured by the Bradford assay. Data were analyzed using GraphPad Prism version 6.0 for Windows with two tail t-test for statistical data analysis […]
(§3) Figure S8. NSC697923 enhances Dox sensitivity of cancer cells. (a, b) Effect of NSC697923 to cancer cells’ viability in Dox treatment . Dox–induced cell death of H1299 ( a) and HCT116 ( b) was quantified by colorimetric cell viability assay after treating 5 µM NSC697923 for 12 h followed by 12h treatment of Dox (0.0 […]
(§4) NSC697923. Caspase activity was quantified by luminogenic caspase activity assay. All error bars represent the standard deviation from at least 4 independent experiments. *, P<0.05; **, P<0.01; ***, P<0.001.

HCT116 cells [2] = assay: Dox-induced cell death, colorimetric cell viability, HCT116; assay type: cell-based; conditions: 10 µM CR or 5 µM NSC697923 12 h, then Dox 1.25–5.0 μM 12 h
Method: as §1
as §2, with “assay.” for “assay. Data were analyzed using GraphPad Prism version 6.0 for Windows with two tail t-test for statistical data analysis”
as §3, §4

H1299 cells [3] = assay: Luminogenic caspase activity assay (Caspase Glo 3/7), H1299; assay type: cell-based; conditions: 10 µM CR or 5 µM NSC697923 with Dox
Method: as §1
as §2, with “assay.” for “assay. Data were analyzed using GraphPad Prism version 6.0 for Windows with two tail t-test for statistical data analysis”
as §3
(§5) NSC697923. Caspase activity was quantified by luminogenic caspase activity assay. […]

HCT116 cells [4] = assay: Luminogenic caspase activity assay (Caspase Glo 3/7), HCT116; assay type: cell-based; conditions: 10 µM CR or 5 µM NSC697923 with Dox
Method: as §1
as §2, with “assay.” for “assay. Data were analyzed using GraphPad Prism version 6.0 for Windows with two tail t-test for statistical data analysis”
as §3, §5

Nc1c(/N=N/c2ccc(-c3ccc(/N=N/c4cc(S(=O)(=O)O)c5ccccc5c4N)cc3)cc2)cc(S(=O)(=O)O)c2ccccc12 [CR, Congo red]
Kd (ubiquitin): 14.4 ± 1.27 µM | Inhibition of K63 polyubiquitination (Ubc13): effectively inhibited by CR in a dose-dependent manner | Effect on USP4-enhanced β-catenin transcriptional activity (TOP flash) (USP4): this enhancement was antagonized by CR treatment | Effect on Dox-induced cell death, H1299 (H1299 cells [1]): significantly enhanced Dox-induced cell death | Effect on Dox-induced cell death, HCT116 (HCT116 cells [2]): significantly enhanced Dox-induced cell death | Effect on caspase activity of Dox-treated H1299 cells (H1299 cells [3]): Enhanced caspase activity | Effect on caspase activity of Dox-treated HCT116 cells (HCT116 cells [4]): Enhanced caspase activity
